Columns and labels:
[1] = target: T1, human A1 receptor (Homo sapiens, UniProt P30542); assay: Adenosine antagonistic activity, radioligand binding with [3H]DPCPX; conditions: [3H]DPCPX 4.5 nM
T1 sequence (P30542 1-326): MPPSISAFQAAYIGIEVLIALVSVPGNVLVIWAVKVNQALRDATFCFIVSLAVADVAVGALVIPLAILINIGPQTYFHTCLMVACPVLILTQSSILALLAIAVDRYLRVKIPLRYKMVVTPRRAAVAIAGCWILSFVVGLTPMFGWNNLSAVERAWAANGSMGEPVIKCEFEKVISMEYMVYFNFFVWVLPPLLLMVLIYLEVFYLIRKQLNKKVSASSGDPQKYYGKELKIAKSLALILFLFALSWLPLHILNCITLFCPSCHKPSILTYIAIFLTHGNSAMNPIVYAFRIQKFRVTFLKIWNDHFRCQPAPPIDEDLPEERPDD
Procedure: (§1) The adenosine antagonistic activity [Ki(nM)] of the test compound was examined by radioligand binding techniques using 8-cyclopentyl-1,3-dipropylxanthine, [dipropyl-2,3-^3H(N)] ([^3H]DPCPX, 4.5 nM) for human A1 receptor and [^3H]CGS 21680 (20 nM) for human A2a receptor.

[2] = tested on: ddY mice; assay: Anticatalepsy activity in mouse (haloperidol-induced catalepsy); assay type: in vivo; conditions: 3.2 mg/kg orally, ddY mice n=7; haloperidol 0.32 mg/kg i.p. 30 min after compound; measured 30 min after injection
Procedure: The test compound (3.2 mg/kg) was administered orally with ddY mice(n=7). Then, haloperidol (0.32 mg/kg) was injected intraperitoneally 30 min. after the administration of the compound. Thirty min. after the injection, the cataleptic responses of mice were measured. The forelimbs of each mouse were placed on a 3 cm high, 3 mm wide horizontal bar, and the duration of cataleptic posture was measured for up to 30 sec.

[3] = target: human A2a receptor (Homo sapiens, UniProt P29274); assay: Adenosine antagonistic activity, radioligand binding with [3H]CGS 21680; conditions: [3H]CGS 21680 20 nM
Procedure: as §1

Chain of human A2a receptor (P29274 whole entry): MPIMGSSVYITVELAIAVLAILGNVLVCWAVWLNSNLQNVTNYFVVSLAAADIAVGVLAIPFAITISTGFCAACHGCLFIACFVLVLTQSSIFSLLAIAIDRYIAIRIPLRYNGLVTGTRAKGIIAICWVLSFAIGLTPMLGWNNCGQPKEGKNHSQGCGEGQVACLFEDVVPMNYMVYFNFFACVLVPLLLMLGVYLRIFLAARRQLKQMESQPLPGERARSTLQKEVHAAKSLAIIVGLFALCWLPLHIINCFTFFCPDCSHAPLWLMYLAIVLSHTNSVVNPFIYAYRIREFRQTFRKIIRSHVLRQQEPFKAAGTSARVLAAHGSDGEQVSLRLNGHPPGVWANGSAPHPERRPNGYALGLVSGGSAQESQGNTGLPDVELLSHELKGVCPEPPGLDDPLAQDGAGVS

Row | Ki [1] [nM] | melting point [°C] | Ki [3] [nM] | Structure (SMILES) | Manifestation rate of catalepsy (number of mouse) [2]
1 | 11.3 | > 280 | 3.85 | Nc1ncc(-c2ccc(=O)[nH]n2)c(-c2ccccc2)n1 [Example 1, 6-(2-Amino-4-phenyl-5-pyrimidinyl)-3(2H)-pyridazinone] | 4/7
2 | 3.14 | 255 to 256 | 4.35 | CCn1nc(-c2cnc(N)nc2-c2ccccc2)ccc1=O [Example 4, 6-(2-Amino-4-phenyl-5-pyrimidinyl)-2-ethyl-3(2H)-pyridazinone] | 0/7
3 | 6.47 | 209 to 210 | 2.09 | CC(=O)Nc1ncc(-c2ccc(=O)n(C(C)C)n2)c(-c2ccccc2)n1 [Example 7, N-[5-(1-Isopropyl-6-oxo-1,6-dihydro-3-pyridazinyl)-4-phenyl-2-pyrimidinyl]acetamide] | 0/7
4 | 10.8 | 143 to 144.5 | 7.38 | CC(C)n1nc(-c2cnc(NCc3ccccn3)nc2-c2ccccc2)ccc1=O [Example 18, 2-Isopropyl-6-{4-phenyl-2-[(2-pyridinylmethyl)amino]-5-pyrimidinyl}-3(2H)-pyridazinone] | 0/7
5 | 7.74 | 215 | 1.38 | CC(C)n1nc(-c2cnc(N)nc2-c2ccco2)ccc1=O [Example 47, 6-[2-Amino-4-(2-furyl)-5-pyrimidinyl]-2-isopropyl-3(2H)-pyridazinone] | 1/7
6 | 1.75 | 231 to 232.5 | 1.41 | CC(C)n1nc(-c2c(F)nc(N)nc2-c2ccccc2)ccc1=O [Example 136, 6-(2-Amino-4-fluoro-6-phenyl-5-pyrimidinyl)-2-isopropyl-3(2H)-pyridazinone] | 0/7
7 | 2.36 | 147 | 1.7 | COCCOc1ccc(-c2nc(N)ncc2-c2ccc(=O)n(C(C)C)n2)cc1 [Example 212, 6-{2-Amino-4-[4-(2-methoxyethoxy)phenyl]-5-pyrimidinyl}-2-isopropyl-3(2H)-pyridazinone] | 0/7
8 |  | 162 |  | CC(C)n1nc(-c2cnc(N)nc2-c2ccc(OCCN(C)C)cc2)ccc1=O [Example 217, 6-(2-amino-4-{4-(2-(dimethylamino)ethoxy]phenyl}-5-pyrimidinyl)-2-isopropyl-3(2H)-pyridazinone] | 
9 |  | 198 |  | CC(C)n1nc(-c2cnc(N)nc2-c2ccccc2OCCN(C)C)ccc1=O [Example 218, 6-(2-Amino-4-{2-[2-(dimethylamino)ethoxy]phenyl}-5-pyrimidinyl)-2-isopropyl-3(2H)-pyridazinone] | 
10 |  | 111 |  | CC(C)n1nc(-c2cnc(N)nc2-c2cccc(OCCN(C)C)c2)ccc1=O [Example 219, 6-(2-Amino-4-{3-[2-(dimethylamino)ethoxy]phenyl}-5-pyrimidinyl)-2-isopropyl-3(2H)-pyridazinone] | 
11 |  | 161 |  | CC(C)n1nc(-c2cnc(N)nc2-c2ccc(OCCN3CCOCC3)cc2)ccc1=O [Example 220, 6-(2-Amino-4-{4-[2-(4-morpholinyl)ethoxy]phenyl}-5-pyrimidinyl)-2-isopropyl-3(2H)-pyridazinone] | 
12 |  | 115 |  | CC(C)n1nc(-c2cnc(N)nc2-c2ccccc2OCCN2CCOCC2)ccc1=O [Example 221, 6-(2-Amino-4-{2-[2-(4-morpholinyl)ethoxy]phenyl}-5-pyrimidinyl)-2-isopropyl-3(2H)-pyridazinone] | 
13 |  | 68 |  | CC(C)n1nc(-c2cnc(N)nc2-c2cccc(OCCN3CCOCC3)c2)ccc1=O [Example 222, 6-(2-Amino-4-{3-[2-(4-morpholinyl)ethoxy]phenyl}-5-pyrimidinyl)-2-isopropyl-3(2H)-pyridazinone] | 
14 |  | 204 |  | CC(C)n1nc(-c2cnc(N)nc2-c2ccc(Br)cc2)ccc1=O [Example 235, 6-[2-Amino-4-(4-bromophenyl)-5-pyrimidinyl]-2-isopropyl-3(2H)-pyridazinone] | 
15 |  | 238 to 240 |  | CC(C)n1nc(-c2cnc(N)nc2-c2cccc(Br)c2)ccc1=O [Example 236, 6-[2-Amino-4-(3-bromophenyl)-5-pyrimidinyl]-2-isopropyl-3(2H)-pyridazinone] | 
16 |  | 244 |  | CC(C)n1nc(-c2cnc(N)nc2-c2c(F)cccc2F)ccc1=O [Example 237, 6-[2-Amino-4-(2,6-difluorophenyl)-5-pyrimidinyl]-2-isopropyl-3(2H)-pyridazinone] | 

Row | Ki [1] [nM] | melting point [°C] | Ki [3] [nM] | Structure (SMILES) | Manifestation rate of catalepsy (number of mouse) [2]
17 |  | 234 |  | CC(C)n1nc(-c2cnc(N)nc2-c2cc(F)cc(F)c2)ccc1=O [Example 238, 6-[2-Amino-4-(3,5-difluorophenyl)-5-pyrimidinyl]-2-isopropyl-3(2H)-pyridazinone] | 
18 |  | 208 |  | CC(C)n1nc(-c2cnc(N)nc2-c2c(Cl)cccc2Cl)ccc1=O [Example 239, 6-[2-Amino-4-(2,6-dichlorophenyl)-5-pyrimidinyl]-2-isopropyl-3(2H)-pyridazinone] | 
19 |  | 212 |  | Cc1cccc(C)c1-c1nc(N)ncc1-c1ccc(=O)n(C(C)C)n1 [Example 240, 6-[2-Amino-4-(2,6-dimethylphenyl)-5-pyrimidinyl]-2-isopropyl-3(2H)-pyridazinone] | 
20 |  | 216 |  | CC(C)n1nc(-c2cnc(N)nc2-c2ccoc2)ccc1=O [Example 241, 6-[2-Amino-4-(3-furyl)-5-pyrimidinyl]-2-isopropyl-3(2H)-pyridazinone] | 
21 |  | 234 |  | CC(C)n1nc(-c2cnc(N)nc2-c2ccsc2)ccc1=O [Example 242, 6-[2-Amino-4-(3-thienyl)-5-pyrimidinyl]-2-isopropyl-3(2H)-pyridazinone] | 
22 |  | 260 |  | COc1cccc(OC)c1-c1nc(N)ncc1-c1ccc(=O)n(C(C)C)n1 [Example 243, 6-[2-Amino-4-(2,6-dimethoxyphenyl)-5-pyrimidinyl]-2-isopropyl-3(2H)-pyridazinone] | 
23 |  | 241 |  | Cn1nc(-c2cnc(N)nc2-c2ccoc2)ccc1=O [Example 244, 6-[2-Amino-4-(3-furyl)-5-pyrimidinyl]-2-methyl-3(2H)-pyridazinone] | 
24 |  | 252 |  | Cn1nc(-c2cnc(N)nc2-c2ccsc2)ccc1=O [Example 245, 6-[2-Amino-4-(3-thienyl)-5-pyrimidinyl]-2-methyl-3(2H)-pyridazinone] | 
25 |  | 166 |  | CN(C)c1ncc(-c2ccc(=O)n(C)n2)c(-c2ccc(Cl)cc2)n1 [Example 246, 6-[4-(4-chlorophenyl)-2-(dimethylamino)-5-pyrimidinyl]-2-methyl-3(2H)-pyridazinone] | 
26 |  | 165 |  | COc1ccc(-c2nc(N(C)C)ncc2-c2ccc(=O)n(C)n2)cc1 [Example 247, 6-[2-(Dimethylamino)-4-(4-methoxyphenyl)-5-pyrimidinyl]-2-methyl-3(2H)-pyridazinone] | 
27 |  | 184 |  | CN(C)c1ncc(-c2ccc(=O)n(C)n2)c(-c2cccc(F)c2)n1 [Example 248, 6-[2-(Dimethylamino)-4-(3-fluorophenyl)-5-pyrimidinyl]-2-methyl-3(2H)-pyridazinone] | 
28 |  | 158 |  | COc1ccc(-c2nc(N(C)C)ncc2-c2ccc(=O)n(C)n2)cc1F [Example 249, 6-[2-(Dimethylamino)-4-(3-fluoro-4-methoxyphenyl)-5-pyrimidinyl]-2-methyl-3(2H)-pyridazinone] | 
29 |  | 180 to 181 |  | COCC(C)n1nc(-c2cnc(N)nc2-c2ccccc2)ccc1=O (centres unmarked) [Example 250, 6-(2-Amino-4-phenyl-5-pyrimidinyl)-2-(2-methoxy-1-methylethyl)-3(2H)-pyridazinone] | 
30 |  | 222 to 223 |  | CC(CO)n1nc(-c2cnc(N)nc2-c2ccccc2)ccc1=O (centres unmarked) [Example 251, 6-(2-amino-4-phenyl-5-pyrimidinyl)-2-(2-hydroxy-1-methylethyl)-3(2H)-pyridazinone] | 
31 |  | 235 to 237 |  | CC(C)n1nc(-c2c(Cl)nc(N)nc2-c2ccccc2)ccc1=O [Example 252, 6-(2-amino-4-chloro-6-phenyl-5-pyrimidinyl)-2-isopropyl-3(2H)-pyridazinone] | 
32 |  | 213 to 215 |  | Cc1nc(N)nc(-c2ccccc2)c1-c1ccc(=O)n(C(C)C)n1 [Example 253, 6-(2-amino-4-methyl-6-phenyl-5-pyrimidinyl)-2-isopropyl-3(2H)-pyridazinone] | 

From patent publication US20050043315A1, “Aminopyrimidine compounds, processes for their preparation and pharmaceutical compositions containing them” (priority 2002, published 2005)
